ChEMBL document CHEMBL1154467, “QSAR study about ATP-sensitive potassium channel activation of cromakalim analogues using CP-MLR approach” (Eur J Med Chem, 2008)

Target: ATP-binding cassette sub-family C member 9 (Rattus norvegicus) (UniProt Q63563)
Experiment: […] of SUR2A/kir6.2 channel in Wistar rat thoracic aorta assessed as relaxation of Kcl-induced contraction
Type: tissue-based

Chain of ATP-binding cassette sub-family C member 9 (Rattus norvegicus) (Q63563 whole entry): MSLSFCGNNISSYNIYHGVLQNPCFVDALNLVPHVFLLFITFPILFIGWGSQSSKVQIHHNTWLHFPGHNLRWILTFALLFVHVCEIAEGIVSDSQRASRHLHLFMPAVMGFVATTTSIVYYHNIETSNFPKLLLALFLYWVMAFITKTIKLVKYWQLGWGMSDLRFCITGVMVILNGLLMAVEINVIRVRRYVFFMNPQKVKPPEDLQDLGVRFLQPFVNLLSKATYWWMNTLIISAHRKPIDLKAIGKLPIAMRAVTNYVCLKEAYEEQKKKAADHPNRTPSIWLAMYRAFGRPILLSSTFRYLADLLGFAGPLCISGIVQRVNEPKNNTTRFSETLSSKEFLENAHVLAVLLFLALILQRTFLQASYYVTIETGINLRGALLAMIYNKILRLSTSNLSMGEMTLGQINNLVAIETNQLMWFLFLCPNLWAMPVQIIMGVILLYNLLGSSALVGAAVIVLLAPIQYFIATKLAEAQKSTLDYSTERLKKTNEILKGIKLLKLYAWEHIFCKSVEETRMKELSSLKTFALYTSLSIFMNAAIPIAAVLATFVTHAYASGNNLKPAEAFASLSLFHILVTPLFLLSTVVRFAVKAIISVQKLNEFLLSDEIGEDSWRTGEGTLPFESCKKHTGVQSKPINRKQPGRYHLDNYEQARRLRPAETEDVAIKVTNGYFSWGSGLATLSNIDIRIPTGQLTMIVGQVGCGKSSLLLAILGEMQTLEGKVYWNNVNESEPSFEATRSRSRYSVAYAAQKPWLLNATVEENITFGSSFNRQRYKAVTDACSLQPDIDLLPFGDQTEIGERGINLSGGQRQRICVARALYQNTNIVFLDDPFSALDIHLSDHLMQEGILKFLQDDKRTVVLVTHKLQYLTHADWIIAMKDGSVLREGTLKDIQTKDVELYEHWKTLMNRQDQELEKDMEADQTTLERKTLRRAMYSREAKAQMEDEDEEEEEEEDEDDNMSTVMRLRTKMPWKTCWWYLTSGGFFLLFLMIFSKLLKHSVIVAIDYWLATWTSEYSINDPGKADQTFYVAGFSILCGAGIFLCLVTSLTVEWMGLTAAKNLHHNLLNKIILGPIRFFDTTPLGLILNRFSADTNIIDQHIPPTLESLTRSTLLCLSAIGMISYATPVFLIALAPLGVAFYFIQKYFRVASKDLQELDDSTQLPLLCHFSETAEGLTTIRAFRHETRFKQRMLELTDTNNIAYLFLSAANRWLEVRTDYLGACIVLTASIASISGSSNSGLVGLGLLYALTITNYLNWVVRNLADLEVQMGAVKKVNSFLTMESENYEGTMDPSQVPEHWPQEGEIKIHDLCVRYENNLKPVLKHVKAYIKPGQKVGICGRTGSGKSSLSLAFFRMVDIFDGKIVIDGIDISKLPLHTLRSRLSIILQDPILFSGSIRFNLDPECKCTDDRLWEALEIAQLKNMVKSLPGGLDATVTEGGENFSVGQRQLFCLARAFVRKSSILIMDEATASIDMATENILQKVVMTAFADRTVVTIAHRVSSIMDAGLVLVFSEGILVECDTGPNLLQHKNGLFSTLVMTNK

## CCOC(=O)NC1CC(C)(C)Oc2ccc(F)cc21 (configuration not stated)
  pED50: 4.14

## Cc1ccc(S(=O)(=O)NC(=O)NC2CC(C)(C)Oc3ccc(Cl)cc32)cc1 (configuration not stated)
  pED50: 4.2

## CC(C)NC(=O)NC1CC(C)(C)Oc2ccc(Br)cc21 (configuration not stated)
  pED50: < 3.52

## CC(C)NC(=S)NC1CC(C)(C)Oc2ccc(Br)cc21 (configuration not stated)
  pED50: 5.06

## CCNC(=O)NC1CC(C)(C)Oc2ccc(F)cc21 (configuration not stated)
  pED50: 4.37

## CC1(C)CC(NC(=S)NCc2ccccc2)c2cc(Cl)ccc2O1 (configuration not stated)
  pED50: 4.7

## CCNC(=S)NC1CC(C)(C)Oc2ccc(Br)cc21 (configuration not stated)
  pED50: 5.43

## CC1(C)CC(NC(=O)NS(=O)(=O)c2ccccc2)c2cc(Cl)ccc2O1 (configuration not stated)
  pED50: 3.68

## CC1(C)Oc2ccc(C#N)cc2C(N2CCCC2=O)C1O (racemic)
  pED50: 6.89

## CC1(C)CC(NC(=O)NCc2ccccc2)c2cc(Cl)ccc2O1 (configuration not stated)
  pED50: 4.82

## CC1(C)CC(NC(=S)NCc2ccccc2)c2cc(Br)ccc2O1 (configuration not stated)
  pED50: 4.61

## CCOC(=O)NC1CC(C)(C)Oc2ccc(Cl)cc21 (configuration not stated)
  pED50: 4.42

## CCNC(=O)NC1CC(C)(C)Oc2ccc(Br)cc21 (configuration not stated)
  pED50: 5.12

## CC(=O)NC1CC(C)(C)Oc2ccc(Cl)cc21 (configuration not stated)
  pED50: 5.18

## CCNC(=O)NC1CC(C)(C)Oc2ccc(Cl)cc21 (configuration not stated)
  pED50: 5.17

## CCNC(=S)NC1CC(C)(C)Oc2ccc(F)cc21 (configuration not stated)
  pED50: 4.75

## CC(=O)NC1CC(C)(C)Oc2ccc(Br)cc21 (configuration not stated)
  pED50: 5.19

## CC(C)NC(=O)NC1CC(C)(C)Oc2ccc(Cl)cc21 (configuration not stated)
  pED50: 3.84

## CCOC(=O)NC1CC(C)(C)Oc2ccc(Br)cc21 (configuration not stated)
  pED50: 4.59

## CC1(C)CC(NC(=O)NS(=O)(=O)c2ccc(Cl)cc2)c2cc(Cl)ccc2O1 (configuration not stated)
  pED50: 4.29

## CC(C)NC(=O)NC1CC(C)(C)Oc2ccc(F)cc21 (configuration not stated)
  pED50: 3.96

## CC1(C)CC(NC(=O)NCc2ccccc2)c2cc(Br)ccc2O1 (configuration not stated)
  pED50: < 3.52

## CC(C)NC(=S)NC1CC(C)(C)Oc2ccc(F)cc21 (configuration not stated)
  pED50: 4.73

## CC1(C)CC(NC(=S)NCc2ccccc2)c2cc(F)ccc2O1 (configuration not stated)
  pED50: 5.37

## CCNC(=S)NC1CC(C)(C)Oc2ccc(Cl)cc21 (configuration not stated)
  pED50: 5.09

## CC(C)NC(=S)NC1CC(C)(C)Oc2ccc(Cl)cc21 (configuration not stated)
  pED50: 4.96

## CC(=O)NC1CC(C)(C)Oc2ccc(F)cc21 (configuration not stated)
  pED50: 4.33
